Reference: patent US12527776B2, “Treatment of ciliopathies using inhibitors of glucosylceramide synthase (GCS)” (GENZYME CORPORATION, priority 2019, dated 2026)

Tests used:
[1] = system: Bbs2−/− mice adipose tissue; experiment: RNA sequencing of adipose tissue of Bbs2−/− mice; format: in vivo, mouse; conditions: 0.033% w/w in feed from 1 to 6 months of age
Protocol: Total RNA was isolated from previously flash frozen adipose tissue dissected from four six-month old Wt (Wt #1-4), Bbs2^−/− (Bbs #1-4) or Bbs2^−/− treated with 0.033% w/w of Compound 1 (Bbs+Cmpd1 #1-4) in feed from 1 to 6 months of age using TRIzol (Thermo Fisher Scientific) and chloroform extractions. RNA samples were further purified with RNAeasy Mini Kit (Qiagen) to remove genomic DNA. The concentration and purity of RNA was assessed with a NanoDrop 8000 microspectrophotometer (Thermo Fisher Scientific). RNA integrity was then evaluated with a 4200 TapeStation System (Agilent Technologies).
The sequencing libraries were generated using the TruSeq Stranded mRNA Library Prep Kit as per the manufacturer recommendations (Illumina). Sequencing was performed using High Output NextSeq 500/550 v2.5 kits on an Illumina NextSeq 500 platform (2×75 bp paired-end reads).
Data analysis was performed with Array Studio V10.1 (Omicsoft Corporation, a Qiagen company) and mapped to Genome Reference Consortium Mouse Build 38. Heatmaps are generated using a Center Scale normalization algorithm on median normalized Log 2 expression values as per the software developer (Omicsoft).

[2] = system: Bbs2−/− mice; experiment: Metabolic parameters in Bbs2−/− mice; format: in vivo, mouse
Source text: A Bbs2^−/− mouse model has been described by Nishimura D Y et al. (Proc Natl Acad Sci, 101:16588-16593 (2004)) with exons 5-14 of Bbs2 replaced with a neomycin cassette. Mice were backcrossed into 129/SvJ background. Treated Bbs2^−/− mice were fed ad libitum with 0.033% w/w of Compound 1 incorporated in feed from the age of 1 month to 6 months. Bbs2^−/− and Wt control animals were fed regular 5053 chow (LabDiet). To establish metabolic disease, Bbs2^−/− mice were left untreated until four-months of age, and then treated with Compound 1 incorporated into feed for the fifth and sixth months.
Body composition was analyzed using an EchoMRI™. Measurements of the fat mass and of lean mass were recorded and percent of body fat was calculated. Body composition was calculated using the following formula: fat mass/(fat mass+lean mass).
Food weights were recorded from the food hopper and bedding. Average food consumption per animal per day was estimated using the following formula: [(food weight at start of period−(food weight at end of period in hopper[…])]/#animals in the cage/#days of observation.
Blood was collected during necropsy and incubated for 15 minutes at room temperature to allow clot formation. Clot was removed by centrifugation at 15,000 rpm for 5 minutes to collect serum. Leptin ELISA kit (R&D Systems) was used to measure leptin concentrations according to the manufacturer's instructions.
Total RNA was isolated from homogenized adipose tissue dissected from 6-month old mice using TRizol and chloroform extraction followed by the RNAeasy Mini Kit Purification (Qiagen), quantified using the NanoDrop 2300 system, and was reverse transcribed using High Capacity cDNA Reverse Transcription Kit (Applied Biosystems). Primers for Fas and Srebf1 were purchased from Applied Biosystems. Quantitative PCR was performed in duplicate for each sample on an Applied Biosystems RT-PCR machine using Taqman Universal Master Mix (Thermo Fisher) according to the manufacturer's instructions. Relative amounts of mRNA were determined using the Comparative CT Method for quantification and were normalized to GAPDH mRNA levels.
Automated digital image analysis was performed on whole adipose tissues using Visiopharm Image Analysis software (DK-2970 Hoersholm, Denmark, version 6.9.1). Two custom-written applications were created and run consecutively for each digital image. The first application detected adipose tissue using threshold classification and outlined the area as a Region of Interest (ROI). The second application used threshold to classify the tissue inside the ROI into three categories: Cytoplasm (cytoplasmic membrane), Adipose (Adipocyte), and Other (unwanted artifacts, large vessels, other tissue). Post processing steps included enclosing adipose with cytoplasm and selecting adequate adipose cells for counting by removing any adipose with a form factor less than 0.5.
Paraffin-embedded samples of brain tissue from Wt and Bbs2^−/− mice were cut and 4 micrometer sections were boiled in Antigen Retrieval solution (DAKO) in a pressure cooker to unmask antigens. Sections were blocked for 1 hour with 3% BSA followed by incubation with primary antibodies to adenylate cyclase III (Santa Cruz Biotechnology) diluted in 3% BSA overnight at 4° C. Alexa Fluor 488 secondary antibody (Invitrogen) was used at the dilution 1:1000. Images were acquired on a Leica DM5500B microscope fitted with ×40 and ×60 objectives using Leica Application Suite Advance Fluorescence software (Leica Microsystems).

[3] = 0.033% w/w in feed from 1 to 6 months of age
[4] = established disease, 0.033% w/w in feed starting at 4 months of age, after one month
[5] = white adipose tissue, feed from 1 to 6 months of age

In the case of `CC(C)(NC(=O)OC1CN2CCC1CC2)c1cccc(-c2ccc(F)cc2)c1` (stereo not drawn) [Compound 1, 1-azabicyclo[2.2.2]oct-3-yl [2-(4′-fluorobiphenyl-3-yl)propan-2-yl]carbamate], the “expression of genes in adipogenesis, ciliogenesis and sphingolipid homeostasis pathways” value [1] is reported as “normalizes the expression of genes”, the body fat [2, 3] is reported as “significant decrease” and the body weight [2, 3] is reported as “significant decrease”. The food consumption [2, 3] was “significant decrease”, the serum leptin [2, 3] was “reduced to wild type levels” and the “cilia in the hypothalamus” value ([2]; Compound in feed) was “preserved the hypothalamic cilia”. The body fat [2, 4] was “decreased”, the body weight [2, 4] was “decreased” and the serum leptin [2, 4] was “decreased”. For the same compound, the adipocyte size ([2]; established disease, after the two-month treatment) was “decrease of adipocyte size”, the adipocyte size [2, 5] was “reduction of adipocyte size” and the “expression of pro-adipogenic gene Srebf1” value [2, 5] was “corrected upon treatment to the levels observed in Wt control”.
